Laboratory results taken from publication PMC9764404 (ACS infectious diseases, 2022).

How the values were obtained:
Assay type in all cases: binding
LdtAb [1] = biological target: T1, LdtAb (Acinetobacter baumannii, UniProt A0A222A2P4); test: LC-MS of acyl-enzyme formation; conditions: covalent, 2 μM enzyme, 200 μM antibiotic, PBS pH 7.4, 22 °C
LdtAb [2] = biological target: T1, LdtAb; test: LC-MS of acyl-enzyme formation; conditions: covalent; 2 μM enzyme, 200 μM antibiotic; PBS pH 7.4; 22 °C
LdtAb [3] = biological target: T1, LdtAb; test: acylation by reporter substrate; conditions: covalent; very slow acylation

Row | SMILES | % acyl-enzyme after 18 h (LdtAb [1]) | apparent acylation rate constant k2 (LdtAb [2]) | acylation by reporter substrate (data not shown) (LdtAb [3])
1 | C[C@@H](O)[C@H]1C(=O)N2C(C(=O)O)=C(S[C@@H]3CN[C@H](C(=O)N(C)C)C3)[C@H](C)[C@H]12 [meropenem] | 48% | – | –
2 | C[C@@H](O)[C@H]1C(=O)N2C(C(=O)O)=C(S[C@@H]3CN[C@H](C(=O)Nc4cccc(C(=O)O)c4)C3)[C@H](C)[C@H]12 [ertapenem] | 97% | 0.22 ± 0.01 h⁻¹ | –
3 | O=C(Cc1cccs1)N[C@@H]1C(=O)N2C(C(=O)O)=C(/C=C/c3ccc([N+](=O)[O-])cc3[N+](=O)[O-])CS[C@H]12 [nitrocefin] | – | – | acylation of LdtAb by nitrocefin took more than six hours to reach completion
4 | C[C@@H](O)[C@H]1C(=O)N2C(C(=O)O)=C(SCCN=CN)C[C@H]12 [imipenem] | 95% | – | –
5 | C[C@@H](O)[C@H]1C(=O)N2C(C(=O)O)=C(S[C@@H]3CN[C@H](CNS(N)(=O)=O)C3)[C@H](C)[C@H]12 [doripenem] | 21% | – | –
